Assay results as given in patent US20150250883A1, “COMPOSITIONS AND METHODS TO IMPROVE THE HOMING AND GRAFTING OF HEMATOPOETIC STEM CELLS” (7 HILLS PHARMA, LLC, priority 2014, published 2015).

Assays:
[1] = system: Jurkat cells (integrin expressing) adhering to immobilized CS1-BSA; test: Static adhesion of integrin expressing cells to an immobilized integrin ligand; format: cell-based
Method: The effective concentration of a representative agonist compound, THI0019, in a cell carrier was evaluated by a static adhesion of integrin expressing cells to an immobilized integrin ligand in vitro, as described below.
The effective concentration of THI0019, a representative agonist compound used in this example, was evaluated by a static adhesion of integrin expressing cells to an immobilized integrin ligand. The 25 amino acid alternatively spliced sequence of fibronectin named connecting segment 1 (CS1) was synthesized and conjugated to BSA. CS1-BSA at 0.3 μg/mL in 50 μL of a representative cell carrier was added to wells of a 96-well plate and allowed to coat overnight at 4° C. The representative cell carrier is isotonic Tris Buffered Saline comprising 50 mM Tris-HCl (pH 7.4), 150 mM NaCl and 1 mM MgCl2 and is a model isotonic buffer. Plates were washed with the cell carrier and blocked with 2 wt. % BSA for 1 h. 32×10^6 of Jurkat cells were labeled for 30 minutes with calcein-AM (Molecular Probes), washed 2 times with the cell carrier, resuspended in 8 mL of the cell carrier, and divided equally between two tubes. One tube of the cell suspension was treated with 40 μL DMSO (control) and the other with 40 μL of 1 mM THI0019 in DMSO. The control containing tube and the THI0019 containing tube were each further divided equally among four eppendorf tubes (Tubes 1-4 for each group) such that each contained 4×10^6 of the cells in 1 mL of the control or the THI0019 containing cell carrier. Tube 1 from each group was not further processed (“no treatment”). Tubes 2-4 were centrifuged at 100×G for 5 min at RT. The supernatant was carefully removed with a pipet and each cell pellet was resuspended in 1 mL of the cell carrier without the agonist compound. Tube 2 was not further processed (“pellet”). Tubes 3-4 were again centrifuged at 100×G for 5 min. The supernatant was carefully removed with a pipet and each cell pellet was resuspended in 1 mL of the cell carrier without the agonist compound. Tube 3 was not further processed (“1 wash”). Tube 4 was again centrifuged at 100×G for 5 min. The supernatant was carefully removed with a pipet and the cell pellet was resuspended in 1 mL of the cell carrier without the agonist compound. Tube 4 was not further processed (“2 wash”). The final concentrations of THI0019 in the respective cell carriers for no treatment, pellet, 1 wash, and 2 wash were 10 μM, […]. […] After 30-minute incubation at 37° C., the plates were washed 3 times with binding cell carrier, the adherent cells were lysed, and fluorescence was measured on a Tecan Safire plate reader. The number of cells bound was determined by standard curves correlating fluorescence to cell number generated with the same mixtures used for the assay.

[2] = system: TF-1 cells on immobilized recombinant human VCAM-1; conditions: interpretation of cited detachment assay data; cited from earlier work
[3] = static adhesion, FIG. 1, printed as 'at least 1 femtomolar (fM) to 1 μM'

**Q.** What does the source list for `CCCC[C@@H](COC(=O)N(Cc1cccs1)Cc1cccs1)NC(=O)N[C@@H](CC(=O)OC)c1ccc2c(c1)OCO2` [THI0019, methyl (6S,10S)-10-(1,3-benzodioxol-5-yl)-6-butyl-3,8-dioxo-1-(2-thienyl)-2-(2-thienylmethyl)-4-oxa-2,7,9-triazadodecan-12-oate]?
**A.** ability of agonist treated cells to bind to a cognate ligand after exposure ([1]; after exposure to the agonist in cell carrier): enhanced ability to bind to a cognate ligand within minutes; adhesion potential of cells after dilution/washing of compound from cell carrier ([1]; compound reduced by multiple 1000-fold serial dilutions to as low as 1 fM in cell carrier): retained the ability to exhibit enhanced adhesion potential; effective amount of the agonist compound present in the cell carrier, lower end of range [1, 3]: 1 fM; effective amount of the agonist compound present in the cell carrier, upper end of range [1, 3]: 1 µM; effect on VCAM-1 / VLA-4 interaction (applicant's reading of Vanderslice data) [2]: stabilizes the VCAM-1 and VLA-4 interaction and upon endogenous ligand binding, the compound is displaced
